Legend:
ADNP gene expression = conditions: cited from earlier work; for ADNP gene expression increase: somatosensory cortex of post-natal day 7 rats, sedative dose
[1] = tested on: caspase-3 activation in the hippocampus and somatosensory cortex; assay: Ketamine-induced neuronal cell death / injury, low-dose ketamine pre-treatment; type: in vivo, rats; conditions: for high dose ketamine induced injury: low dose ketamine 5 mg/kg, NAP administration
Text: ADNP induction may be partially responsible for the efficacy of a low-dose ketamine pre-treatment in preventing ketamine-induced neuronal cell death. […] It is therefore theorized that low-dose ketamine prevents high-dose ketamine injury at least in part by increasing expression of ADNP.

Neurons = Neurons treated with low concentration ketamine: ADNP levels and growth cones; type: cell-based
Text: We believe that low-dose ketamine, by inducing ADNP, does more than could be with NAP alone.

growth cones = conditions: cited from earlier work

| Compound | ADNP gene expression increase (ADNP gene expression) [fold] | apoptosis ([1]; high-dose ketamine, rats) | expression of ADNP ([1]; high-dose ketamine, rats) | high dose ketamine induced injury [1] | ADNP levels ([1]; low-dose ketamine) | caspase-3 activation ([1]; low-dose ketamine, hippocampus and somatosensory cortex) | gene expression of ADNP (ADNP gene expression; anesthetic doses) | ADNP protein levels (ADNP gene expression; low doses, including in the somatosensory cortex) | ADNP expression (ADNP gene expression; low doses) | negative effects of decreased growth cones (Neurons; 50 μM) | ADNP levels (Neurons; 50 μM, compared with higher ketamine dosing) | location of primary increase in ADNP (Neurons; following ketamine treatment) | total cellular ADNP levels (Neurons; low concentration exposure, 50 or 100 μM) | ADNP in neurites (Neurons; low concentration of ketamine) | growth cones (Neurons; low concentration of ketamine) | invasion of dynamic microtubules into growth cones (growth cones) |
| --- | --- | --- | --- | --- | --- | --- | --- | --- | --- | --- | --- | --- | --- | --- | --- | --- |
| C[C@]12N[C@H](Cc3ccccc31)c1ccccc12 [MK801] | 1.5 |  |  |  |  |  |  |  |  |  |  |  |  |  |  |  |
| CNC1(c2ccccc2Cl)CCCCC1=O (stereo not drawn) [ketamine] | 1.5 | induce apoptosis | induce | blocks high dose ketamine induced injury | increases ADNP levels | prevents caspase-3 activation | induce gene expression of ADNP | increase ADNP protein levels | induce ADNP expression | not observed | increased at a rate equivalent to higher ketamine dosing | the primary increase in ADNP occurred in the nucleus | notably increased | significant increase | stably expanded growth cones |  |
| NAPVSIPQ |  |  |  | blocks high dose ketamine induced injury |  |  |  |  |  |  |  |  |  |  |  | enhance the invasion of dynamic microtubules into growth cones |
